± gives the standard deviation of the averaged measurements.
Compound: C=C1C[C@H]2C=Nc3cc(OCCCCCOc4cc5c(cc4OC)C(=O)N4CC(=C)C[C@H]4C=N5)c(OC)cc3C(=O)N2C1 [SG2057]
Experiment: absolute IC50 (cell viability, CellTiter-Glo); higher = less potent
Details: treatment time: 3 days
Protocol: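 Large cancer cell line panel screens in 384-well plates. Cells were treated for 3 days with a 9-point dose titration of the free PBD dimer SG2057; viability was read with CellTiter-Glo. Absolute IC50 came from a four-parameter Hill fit normalised to the median of vehicle (DMSO) wells. Several independent screens (projects) per cell line are averaged; values in µM, lowest-dose floor about 1.524e-5 µM.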

Test System | absolute IC50 [nM]
NCI-H2444 | 5.49
L-363 | 0.384 ± 0.54
NCI-H2347 | 1.14 ± 2.7
NCI-H2073 | 28.9
MCAS | 0.42 ± 0.58
huH-1 | 2.28
HCC1159 | 0.67
UMC-11 | 14.8
NCI-H2135 | 5.6
KYSE-150 | 0.194
CFPAC-1 | 0.526 ± 0.55
G124 | 2.54
C32 | 0.31 ± 0.098
RPMI 2650 | 0.539 ± 0.27
NCI-H1993 | 0.564
HOP-18 | 3.89
TC-71 | < 0.0152
AMO-1 | 0.409 ± 0.15
FOX-NY | 0.0773
NCI-H661 | 1.78 ± 3.4
TRAMP-C1 | 0.345
SNB-19 | 0.187
HCC827 | 2.16 ± 4.3

Test System | absolute IC50 [nM]
TRAMP-C2 | 0.154
NAMALWA | 0.0643 ± 0.031
SNU-449 | 5.84
Calu-3 | 1.55 ± 0.058
SNU-601 | 0.0897 ± 0.046
KLE | 12.1 ± 8.9
537 MEL | 1.23 ± 0.94
MG-63 | 0.284
KPP-1 (KPP-PDAC) XENOGRAFT | 0.168
SKG-IIIa | 17.7
1624-17095 (Tumor B) | 5.51
UCSD-242l | 1.29 ± 0.84
HPAC | 13.2 ± 25
LCLC-103H | 1.11 ± 1.2
COLO 680N | 0.602
HCC2218 | 1.16
BA/F3 | 0.114
H322T | 2.68 ± 2.1
HEC-50B | 0.713
Hs 294T | 0.469 ± 0.75
NCI-H520 | 4.03 ± 2.5
NCI-H650 | 2.97 ± 3.3
GB-1 | 1.12

Test System | absolute IC50 [nM]
SK-MEL-1 | 1.11 ± 0.28
NCI-H2110 | 0.296 ± 0.18
SNU-719 | 3.72 ± 4
ECC-1 | 1.04
RT4 | 2.35
HCC1576 | 0.476
PL45 | 0.402
HCC1534 | 3.18 ± 2.4
NCI-H2023 | 0.142 ± 0.27
KYSE-140 | 0.496
CGTH-W-1 | 0.189
FTC-133 | 0.122
NCI-H2595 | 2.2 ± 1.9
COLO 818 | 3.37 ± 4.1
LS1034 | 5.72
Daudi | 0.155 ± 0.24
PAN 02 | 1.39
KPP14449 | 1.53
IGROV-1 | 1.14 ± 1.6
JHH-4 | 0.555 ± 0.54
IGR-1 | 0.75 ± 0.91
RCM-1 | 3.33 ± 5.4
HT-55 | 3.75 ± 2.6

Test System | absolute IC50 [nM]
SiHa | 1.56
HCC2935 | 5.29 ± 3.4
KARPAS-299 | 0.581 ± 1.1
CaR-1 | 0.535 ± 0.21
EPLC-272H | 0.205
COV413B | 2.73 ± 3.9
HCC1937 | 4.67 ± 4.4
COLO 853 | 1 ± 0.73
SUM 149PT | 1.68 ± 1.6
SU.86.86 | 0.733 ± 0.48
COLO 824 | 0.192
1624-16997 (Tumor B) | 0.909
NCI-H446 | 0.244
COV434 | 0.188 ± 0.19
HT-1080 | 0.569 ± 0.14
1321N1 | 0.0321
HCC1171 | 1.01 ± 0.16
4498-1636 Mel-nBR1 | 0.565
HCC880 | 2.86
MOLP-8 | 0.212 ± 0.014
KMS-11 | 0.761 ± 0.19
YAPC | 1.16 ± 0.74
G141 | 0.924 ± 0.65

Test System | absolute IC50 [nM]
NCI-N87 | 0.403 ± 0.11
NCI-H838 | 1.34
HCC1954 | 1.35 ± 3.1
SK-N-SH | 0.114
COR-L279 | 0.082
SK-N-AS | 0.187
SW 837 | 4.01 ± 0.21
G61 | 0.189 ± 0.015
DOV 13 | 0.241 ± 0.31
HCA-7 | 2.01 ± 1.7
MeWo | 1.08 ± 0.37
WM-115 | 0.436 ± 0.57
SK-UT-1B | < 0.0152
MMAc | 0.868
NCI-H1581 | 0.852 ± 0.72
SKG-IIIb | 1.79
MKN-7 | 1.67
BT-20 | 1.72 ± 0.74
TOV-21G | 0.261
COR-L88 | 5.79
NCI-H1975 (MB) | 0.206
OVCAR433 | 0.462 ± 0.47
HCC366 | 4.65

Test System | absolute IC50 [nM]
MCF 10A PTEN -/- (Sigma) | 2.54
COR-L47 | 4.01
HPAF-II | 4.04 ± 0.15
EFE-184 | 5.81 ± 7.5
NCI-H2452 | 2.95 ± 3
HCT-8 | 1.43
RERF-LC-KJ | 1.65 ± 2.5
UACC-62 | 0.77 ± 0.36
Caki-2 | 10.2 ± 19
MDA-MB-361 | 1.96 ± 2.5
KMRC-20 | 3.45
4498-14745 Mel-BR3 | 0.39
T98G | 3.18 ± 3.7
SNU-C1 | 3.4 ± 0.35
NCI-H187 | 0.1
OvCA 429 | 0.139 ± 0.067
HCC597 | 6.01
MKN-74 | 2.17
COV413A | 2.34
OCI-M2 | 0.275 ± 0.0079
HCC78 | 0.114 ± 0.099
8505C | 0.595
G-401 | 0.305 ± 0.16

Test System | absolute IC50 [nM]
SNU-1 | 1.89
HT-115 | 1.59 ± 0.21
Hs 695T | 0.547 ± 0.21
LXFL529 | 2.72
HDQ-P1 | 4.08 ± 4.4
G96 | 0.588
C2BBe1 | 7.31 ± 3.8
HCC1623 | 5.3
NCI-H1666 | 0.888 ± 0.43
HCC1347 | 2.49
MEL-JUSO | 0.875 ± 1
MT-3 | 0.947 ± 0.64
NCI-H1915 | 2.4
FA9JTOTERT | 0.435
NB(TU)1-10 | 0.604
JHH-2 | 4.84 ± 8.1
COV504 | 3.76 ± 4
HCC193 | 3.17 ± 2.2
KPR3351 | 0.931
NCI-H2405 | 0.552 ± 0.38
KP-N-YN | 0.0159
NCI-H2170 | 0.646 ± 0.011
HUP-T4 | 1.09 ± 1.1

Test System | absolute IC50 [nM]
MM.1S | 0.474 ± 0.49
1624-17091 (Tumor A) | 0.849
G28T | 0.984 ± 1
KYSE-520 | 1.01
KCI-MOH1 | 3.23 ± 2
MCF-7 | 2.5 ± 1.7
NCI-H1703 | 0.36 ± 0.39
ONCO-DG-1 | 1.36 ± 2.2
MDA-MB-453 | 3.21 ± 2.3
B16-F1 | 0.595
MAVER-1 | 0.0955 ± 0.065
NCI-H716 | 6.9 ± 3.7
SNU-620 | 2.3 ± 3.1
ME-180 | 0.155
OVCA 420 | 2.24 ± 2.3
LCLC-97TM1 | 1.4
BT-B | 0.864
OUMS-23 | 1.71 ± 0.89
COLO 704 | 3.36 ± 2.6
AsPC-1 | 5.12 ± 5.9
HCC-15 | 2.35 ± 3.1
HM7 | 0.488 ± 0.27

Source: the supplement of paper PMC10784567
